Experimental data reported in PubChem BioAssay (NCI).
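Grown in 96-well plates, cells were treated for 48 hours with each compound at five concentrations. Insufficient inhibition: endpoint recorded as highest concentration tested. GI50 is the concentration that inhibits growth by half. The concentration for full growth arrest is given as TGI.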

What was measured:
Test in all cases: NCI anticancer screen, dose series, 48 h
[1] = system: COLO 205 colon
[2] = system: HOP-62 NSCLC
[3] = system: HS 578T breast
[4] = system: LOX IMVI melanoma
[5] = system: MALME-3M melanoma
[6] = system: MDA-MB-231 breast
[7] = system: NCI-H23 lung
[8] = system: SF-295 CNS
[9] = system: SN12C renal
[10] = system: SNB-19 CNS

| SMILES | TGI [1] | TGI [2] | TGI [3] | TGI [4] | TGI [5] | TGI [6] | TGI [7] | TGI [8] | TGI [9] | TGI [10] | GI50 [1] | GI50 [2] | GI50 [4] | GI50 [5] | GI50 [6] | GI50 [7] | GI50 [8] | GI50 [9] | GI50 [10] | GI50 [3] |
| --- | --- | --- | --- | --- | --- | --- | --- | --- | --- | --- | --- | --- | --- | --- | --- | --- | --- | --- | --- | --- |
| O=C1C=CC(O)C2C1CC13SSC4(CC5C(=O)C=CC(O)C5N4C1=O)C(=O)N23 (stereo not drawn) | 1.04 µM | 1.15 µM | 2.26 µM | 0.193 µM | 1.22 µM | 0.947 µM | 0.393 µM | 2.94 µM | 0.743 µM | 5.19 µM |  |  |  |  |  |  |  |  |  |  |
| NCCSCCc1ccccc1 | > 100 µM | > 100 µM | > 100 µM | > 100 µM | > 100 µM | > 100 µM | > 100 µM | > 100 µM | > 100 µM | > 100 µM |  |  |  |  |  |  |  |  |  |  |
| Clc1nc(Cl)c2ncn(Cc3ccc(Cn4cnc5c(Cl)nc(Cl)nc54)cc3)c2n1 | > 100 µM | 21.5 µM | > 40.2 µM | 14.9 µM | 29.3 µM | 22.4 µM | 22.8 µM | 48.2 µM | 32.4 µM | > 100 µM | > 100 µM | 6.73 µM | 0.96 µM | 5.62 µM | 3.23 µM | 2.02 µM | 7.68 µM | 12.1 µM | 76.2 µM |  |
| C=C1[C@@H]([C@@]2(C)C=CC(=O)C(C)(C)[C@@H]2CC(=O)OC)CC[C@@]2(C)C(c3ccoc3)OC(=O)[C@H]3O[C@]132 (stereo partly drawn) | > 100 µM |  | > 100 µM | > 100 µM | > 100 µM | > 100 µM | > 100 µM | > 100 µM | > 100 µM | > 100 µM |  |  |  |  |  |  |  |  |  |  |
| O=[N+]([O-])c1ccc(S(=O)(=O)Cc2ccccc2)c2nonc12 | 31.1 µM | 43.1 µM | 58.5 µM | 38.2 µM | 33.4 µM | 50.7 µM | 35.5 µM | > 100 µM | 28.5 µM | > 100 µM |  |  |  |  |  |  |  |  |  |  |
| Cc1ccc(-c2nc(N3CCCNCC3)c3oc(-c4ccc(C)cc4)nc3n2)cc1 | 3.55 µM | 24.3 µM | 31.9 µM | 3.46 µM | 3.61 µM | 3.11 µM | 88.2 µM | 3.54 µM | 3.06 µM | 3.25 µM | 1.89 µM | 8.78 µM | 1.86 µM | 1.98 µM | 1.69 µM | 19.9 µM | 1.86 µM | 1.61 µM | 1.77 µM | 12.6 µM |
| C=CCCCc1ccc(C(O)CCCCCCCCCCCC)o1 (stereo not drawn) | 38.6 µM | 30.2 µM | 55.2 µM | 31.1 µM | 72.1 µM | 29.8 µM | 52.5 µM | 46.6 µM | 31.4 µM | 32.8 µM | 19.6 µM | 16 µM | 16.9 µM | 26 µM | 15.6 µM | 22.3 µM | 18.2 µM | 17.2 µM | 17.7 µM | 25.5 µM |
| COc1cc(Cl)cc(-c2nn(-c3cccc(NC(=O)Nc4ccc(Cl)c(C(F)(F)F)c4)c3)cc2-c2ccncc2)c1 | 3.11 µM | 6.32 µM | 67.7 µM |  | 8.59 µM | 3.74 µM | 6.23 µM | 2 µM | 8.21 µM | 17.6 µM | 1.53 µM | 2.12 µM |  | 1.71 µM | 1.44 µM | 1.36 µM | 0.465 µM | 1.56 µM | 2.93 µM | 4.29 µM |
| Cc1nc(Nc2nc3ccccc3o2)nc(-c2cccc([N+](=O)[O-])c2)c1C(=O)Nc1ccc(F)c(Cl)c1 | 3.4 µM | 50.4 µM | 38.8 µM | > 100 µM | 5.79 µM | 4.82 µM | 18.8 µM | 7.09 µM | 20.1 µM | > 100 µM | 1.78 µM | 2.58 µM | 2.78 µM | 1.92 µM | 1.88 µM | 2.19 µM | 1.65 µM | 2.64 µM | 2.32 µM | 2.87 µM |
| COc1ccc(-c2nn(-c3cccc(NC(=O)c4ccc(N5CCOCC5)c(C(F)(F)F)c4)c3)cc2-c2ccncc2)cc1Cl | > 50 µM | > 50 µM | > 50 µM | > 50 µM | > 50 µM | > 50 µM | > 50 µM | > 50 µM | > 50 µM | > 50 µM | 4.25 µM | 11.4 µM | 9.98 µM | 5.05 µM | 2.29 µM | 29.9 µM | 2.31 µM | > 50 µM | 46.8 µM | 2.65 µM |
| C=CS(=O)(=O)CCN1CC1 | > 10 µM | > 10 µM | > 10 µM | > 10 µM | > 10 µM | > 10 µM | > 10 µM | > 10 µM | > 10 µM |  |  |  |  |  |  |  |  |  |  |  |
| N#Cc1cc(S(=O)(=O)Nc2nc3ccccc3s2)c(SCc2ccccc2)cc1Cl | 88.6 µM | 45.7 µM | 53.8 µM | 48.2 µM | 49.6 µM | 82.6 µM | 57.7 µM | 44.1 µM | 41.5 µM | 47.7 µM | 26.5 µM | 24.5 µM | 20.8 µM | 21.4 µM | 26.7 µM | 22.4 µM | 13.6 µM | 19.2 µM | 20.1 µM | 22.4 µM |
| Cc1c(Sc2ccccc2)[n+](=O)c2cc(Cl)c(Cl)cc2n1[O-] | > 100 µM | > 100 µM | > 100 µM | 36.7 µM |  | > 100 µM | > 100 µM | > 100 µM | > 100 µM | > 100 µM | 49 µM | > 100 µM | 18.4 µM |  | 35.7 µM | 33.2 µM | > 100 µM | > 100 µM | > 100 µM | > 100 µM |
| COc1ccc(Nc2cc(C)nc(N3CCN(c4ccnc5cc(Cl)ccc45)CC3)n2)cc1 | 3.96 µM | > 100 µM | > 100 µM | 5.96 µM | > 100 µM | > 100 µM | > 100 µM | 7.68 µM | > 100 µM | > 100 µM | 1.96 µM | 3.89 µM | 2.39 µM | 3.17 µM | 2.31 µM | 3.82 µM | 1.28 µM | 2.8 µM | 4.83 µM | 4.04 µM |
